Columns and labels:
[1] = system: ovulation in female rats; test: in vivo testing of effectiveness to prevent ovulation in female rats; set-up: species or system Sprague-Dawley rats; details: injected at about noon on the day of proestrus, rats ovulating/rats treated
Procedure: The in vivo testing determines effectiveness to prevent ovulation in female rats. In this test, a specified number of mature female Sprague-Dawley rats, e.g. five to ten, each having a body weight from 225 to 250 grams, is injected with a specified microgram dosage of peptide in either saline, bacteriostatic water, polyethylene glycol, corn oil or mixtures of the above with ethanol at about noon on the day of proestrus. Proestrus is the afternoon […]. A separate female rat group is used as a control to which the peptide is not administered. Each of the control female rats ovulates on the evening of proestrus; of the rats treated, the number of them which ovulate is recorded. Each of the peptides is considered to be totally effective to prevent ovulation of female rats at a dose of about 500 micrograms.

[2] = system: LH levels in the bloodstream; test: suppression of circulating LH in castrate male rats after single IV bolus; type: in vivo, Sprague-Dawley rats
Source text: In addition to the in vivo testing, mentioned above, to determine effectiveness to prevent ovulation in female rats, groups of about 6 adult castrate male Sprague-Dawley rats, each having a body weight from 225 to 250 grams, are each injected IV with a 50 microgram dosage of either Peptide No. 103A or a standard antagonist referred to as the Nal-Glu antagonist (see J. Clin. Edno. Metab., 71, 4, 881-888 (1990)) in either corn oil or a phosphate buffer in the presence of BSA (bovine serum albumin). A separate rat group is used as a control, to which only the carrier is administered. Each of the control rats and the rats being treated are monitored for LH levels in the bloodstream at about 3 hours, 24 hours, 36 hours and 48 hours following this single bolus injection.

In the case of “Ac-β-D-2NAL-(4Cl)D-Phe-D-3PAL-Ser-Aph(3-amino 1,2,4 triazole)-D-Aph(3-amino 1,2,4 triazole)-Leu-Lys(isopropyl)-Pro-D-Ala-NH2 [Peptide 103A]”, the “Rats Ovulating” value ([1]; dosage 0.5 micrograms) is reported as 7/8, the “Rats Ovulating” value ([1]; dosage 1.0 micrograms) is reported as 0/7 and the “Rats Ovulating” value ([1]; dosage 2.5 micrograms) is reported as 0/8. For the same substance, the “level of circulating LH in the bloodstream relative to Nal-Glu antagonist” value ([2]; 50 microgram IV, after 12 hours) was “below that of the rats treated with the Nal-Glu antagonist”, the “level of circulating LH in the bloodstream relative to control” value ([2]; 50 microgram IV, monitored at about 3, 24, 36 and 48 hours) was “very substantially below that of the control” and the “duration of biological effect (LH suppression)” value ([2]; single 50 microgram IV bolus injection) was “very long-acting”.

“Ac-β-D-2NAL-(4Cl)D-Phe-D-3PAL-Ser-Lys (isopropyl cyanoguanidino)-D-Lys(isopropyl cyanoguanidino)-Leu-Lys(isopropyl)-Pro-D-Ala-NH2 [Peptide 1]” was tested, and the “Rats Ovulating” value ([1]; dosage 1.0 micrograms) was 0/5 and the “Rats Ovulating” value ([1]; dosage 2.5 micrograms) was 0/9.

From patent US6747125B1, “Peptides intermediates for making GnRH antagonists” (The Salk Institute for Biological Studies, priority 1991, dated 2004)
